Assay results as given in patent publication US9856262B2, “Analogues of 4H-pyrazolo[1,5-a] benzimidazole compound as PARP inhibitors” (HUBEI BIO-PHARMACEUTICAL INDUSTRIAL TECHNOLOGICAL INSTITUTE …, priority 2014, dated 2018).

Legend:
PARP-1 = target: T1, PARP-1 (Homo sapiens, UniProt P09874); test: PARP enzymatic assay (HT Universal Colorimetric PARP1 Assay Kit); type: biochemical; conditions: read-out: PARP-1 enzymatic inhibition IC50
T1 construct: purchased
Outline: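 Inhibition of PARP1 was measured with the HT Universal Colorimetric PARP1 Assay Kit. A 96-well plate was coated with histone proteins overnight at 4° C, washed with PBST, and blocked for 30 min at room temperature. Test compound and 20 μl of PARP1 (1 nM) were then added and incubated. Streptavidin-HRP (1:50) and chemiluminescent HRP substrate were added, and the signal was read on an Envision microplate reader.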

HCC1937 cells = test: Cellular PARylation assay; type: cell-based; conditions: Homo sapiens; HCC1937 cells, compound 30 min then 1 mM H2O2 10 min; read-out: cellular PARylation EC50
Outline: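 HCC1937 cells pretreated 30 min with compound, then stimulated with 1 mM H2O2 for 10 min. Fixed cells immunostained with anti-PAR 10H and FITC secondary, with DAPI counterstain; fluorescence read on a plate reader.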

T1 sequence (P09874 whole entry): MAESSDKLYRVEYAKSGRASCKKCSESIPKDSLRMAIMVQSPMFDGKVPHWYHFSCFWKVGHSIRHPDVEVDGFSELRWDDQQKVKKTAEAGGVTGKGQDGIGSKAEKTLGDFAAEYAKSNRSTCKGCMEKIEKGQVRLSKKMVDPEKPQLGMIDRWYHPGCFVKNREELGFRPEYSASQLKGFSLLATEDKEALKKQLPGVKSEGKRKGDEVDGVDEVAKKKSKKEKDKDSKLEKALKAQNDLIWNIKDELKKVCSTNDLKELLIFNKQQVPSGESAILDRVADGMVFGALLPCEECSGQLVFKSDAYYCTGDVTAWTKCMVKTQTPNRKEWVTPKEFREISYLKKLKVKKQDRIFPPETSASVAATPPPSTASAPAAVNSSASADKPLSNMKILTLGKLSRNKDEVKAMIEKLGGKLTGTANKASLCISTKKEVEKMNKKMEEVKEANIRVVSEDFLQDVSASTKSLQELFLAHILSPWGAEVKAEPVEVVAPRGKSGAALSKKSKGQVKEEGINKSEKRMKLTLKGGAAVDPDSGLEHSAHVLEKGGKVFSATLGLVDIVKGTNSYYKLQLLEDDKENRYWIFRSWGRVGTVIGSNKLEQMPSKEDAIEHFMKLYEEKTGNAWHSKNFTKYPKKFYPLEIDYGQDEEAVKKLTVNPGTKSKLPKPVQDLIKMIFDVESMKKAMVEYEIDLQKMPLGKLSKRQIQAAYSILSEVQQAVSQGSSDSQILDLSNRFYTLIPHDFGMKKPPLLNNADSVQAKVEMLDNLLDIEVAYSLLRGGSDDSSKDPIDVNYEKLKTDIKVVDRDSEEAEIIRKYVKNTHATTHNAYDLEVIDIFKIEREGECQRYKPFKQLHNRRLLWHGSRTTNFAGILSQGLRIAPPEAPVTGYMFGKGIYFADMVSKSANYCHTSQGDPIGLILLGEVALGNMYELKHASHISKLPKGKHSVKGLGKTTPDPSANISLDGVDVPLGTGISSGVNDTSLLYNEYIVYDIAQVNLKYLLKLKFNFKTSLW

| IC50 (PARP-1) | EC50 (HCC1937 cells) | SMILES |
| --- | --- | --- |
| 0.001 to 0.1 µM | 0.101 to 1 µM | CC1(c2cnn3c2[nH]c2cc(F)cc(C(N)=O)c23)CCS(=O)(=O)CC1 [Example 106, 6-fluoro-3-(4-methyl-1,1-dioxidotetrahydro-2H-thiopyran-4-yl)-4H-benzo[4,5]imidazo[1,2-b]pyrazole-8-carboxamide] |
| 0.001 to 0.1 µM | 0.001 to 0.1 µM | CCN1CCCC(c2cnn3c2[nH]c2cc(F)cc(C(N)=O)c23)CC1 (stereo not shown) [Example 18, 3-(1-ethylazepan-4-yl)-6-fluoro-4H-benzo[4,5]imidazo[1,2-b]pyrazole-8-carboxamide] |
| 0.001 to 0.1 µM | 0.101 to 1 µM | CCN1CCCC1c1cnn2c1[nH]c1cc(F)cc(C(N)=O)c12 (stereo not shown) [Example 26, 3-(1-ethylpyrrolidin-2-yl)-6-fluoro-4H-benzo[4,5]imidazo[1,2-b]pyrazole-8-carboxamide] |
| 0.001 to 0.1 µM | 0.101 to 1 µM | CC1(c2cnn3c2[nH]c2cc(F)cc(C(N)=O)c23)CCN(CC2(C#N)CC2)C1 (stereo not shown) [Example 102, 3-(1-((1-cyanocyclopropyl)methyl)-3-methylpyrrolidin-3-yl)-6-fluoro-4H-benzo[4,5]imidazo[1,2-b]pyrazole-8-carboxamide] |
| 0.001 to 0.1 µM | 0.101 to 1 µM | NCc1cnn2c1[nH]c1cc(F)cc(C(N)=O)c12 [Example 39, 3-(aminomethyl)-6-fluoro-4H-benzo[4,5]imidazo[1,2-b]pyrazole-8-carboxamide] |
| 0.001 to 0.1 µM | 0.001 to 0.1 µM | COCCN1CCC(c2cnn3c2[nH]c2cc(F)cc(C(N)=O)c23)CC1 [Example 15, 6-fluoro-3-(1-(2-methoxyethyl)piperidin-4-yl)-4H-benzo[4,5]imidazo[1,2-b]pyrazole-8-carboxamide] |
| 0.001 to 0.1 µM | 0.001 to 0.1 µM | NC(=O)c1cc(F)cc2[nH]c3c(C4CCCN4)cnn3c12 (stereo not shown) [Example 23, 6-fluoro-3-(pyrrolidin-2-yl)-4H-benzo[4,5]imidazo[1,2-b]pyrazole-8-carboxamide] |
| 0.001 to 0.1 µM | 0.101 to 1 µM | CCN1CC2C(C1)C2c1cnn2c1[nH]c1cc(F)cc(C(N)=O)c12 (stereo not shown) [Example 34, 3-(3-ethyl-3-azabicyclo[3.1.0]hexan-6-yl)-6-fluoro-4H-benzo[4,5]imidazo[1,2-b]pyrazole-8-carboxamide] |
| 0.001 to 0.1 µM | 0.101 to 1 µM | CC1(c2cnn3c2[nH]c2cc(F)cc(C(N)=O)c23)CCN(CCC#N)C1 (stereo not shown) [Example 103, 3-(1-(2-cyanoethyl)-3-methylpyrrolidin-3-yl)-6-fluoro-4H-benzo[4,5]imidazo[1,2-b]pyrazole-8-carboxamide] |
| 0.101 to 1 µM | > 1 µM | NC(=O)c1cc(F)cc2c1-n1ncc(C3CCN(CC4CC4)CC3)c1C2(F)F [Example 50, 3-(1-(cyclopropylmethyl)piperidin-4-yl)-4,4,6-trifluoro-4H-pyrazolo[1,5-α]indole-8-carboxamide] |
| 0.001 to 0.1 µM | 0.001 to 0.1 µM | CN1CCC(C)(c2cnn3c2[nH]c2cc(F)cc(C(N)=O)c23)C1 (stereo not shown) [Example 91, 3-(1,3-dimethylpyrrolidin-3-yl)-6-fluoro-4H-benzo[4,5]imidazo[1,2-b]pyrazole-8-carboxamide] |
| 0.001 to 0.1 µM | 0.001 to 0.1 µM | CN1CC2CC2(c2cnn3c2[nH]c2cc(F)cc(C(N)=O)c23)C1 (stereo not shown) [Example 28, 6-fluoro-3-(3-methyl-3-azabicyclo[3.1.0]hexan-1-yl)-4H-benzo[4,5]imidazo[1,2-b]pyrazole-8-carboxamide] |
| 0.001 to 0.1 µM | 0.101 to 1 µM | CNCc1ccc(-c2cnn3c2[nH]c2cc(F)cc(C(N)=O)c23)cc1 [Example 43, 6-fluoro-3-(4-((methylamino)methyl)phenyl)-4H-benzo[4,5]imidazo[1,2-b]pyrazole-8-carboxamide] |

| SMILES | IC50 (PARP-1) | EC50 (HCC1937 cells) |
| --- | --- | --- |
| CC1(CN2CCC(C)(c3cnn4c3[nH]c3cc(F)cc(C(N)=O)c34)CC2)COC1 [Example 71] | 0.001 to 0.1 µM | 0.001 to 0.1 µM |
| COCCCN1CCC(C)(c2cnn3c2[nH]c2cc(F)cc(C(N)=O)c23)CC1 [Example 72, 6-fluoro-3-(1-(3-methoxypropyl)-4-methylpiperidin-4-yl)-4H-benzo[4,5]imidazo[1,2-b]pyrazole-8-carboxamide] | 0.001 to 0.1 µM | 0.001 to 0.1 µM |
| Cc1nn2c([nH]c3cc(F)cc(C(N)=O)c32)c1C1(C)CCN(C)CC1 [Example 115, 3-(1,4-dimethylpiperidin-4-yl)-6-fluoro-2-methyl-4H-benzo[4,5]imidazo[1,2-b]pyrazole-8-carboxamide] | 0.001 to 0.1 µM | 0.001 to 0.1 µM |
| Cc1nn2c([nH]c3cc(F)cc(C(N)=O)c32)c1C1(C)CCN(C(C)C)CC1 [Example 114, 6-fluoro-3-(1-isopropyl-4-methylpiperidin-4-yl)-2-methyl-4H-benzo[4,5]imidazo[1,2-b]pyrazole-8-carboxamide] | 0.001 to 0.1 µM | 0.001 to 0.1 µM |
